What was measured:
[1] = system: T4Y; assay: Effect of isolated Phe on self-association by turbidity; settings: T4Y c=7mg/ml, 44°C, PBS, 1peptide:60F
[2] = system: FT4Y; assay: as above; settings: FT4Y c=3mg/ml, 46°C, data not shown
[3] = system: (Pro-Hyp-Gly)10; assay: DSC of triple-helical peptide in presence of Phe; settings: PBS pH 7, peptide c=1mg/ml, molar ratio peptide:Phe = 1:200
[4] = molecular target: T4, type IV collagen model peptide (POG)3QOGLOGLOG(POG)4; assay: dynamic light scattering
[5] = molecular target: T4, type IV collagen model peptide (POG)3QOGLOGLOG(POG)4; assay: critical concentration

Compound | effect on self-association of T4Y [1] | effect on self-association of FT4Y [2] | effect on thermal stability of (Pro-Hyp-Gly)10 by DSC [3] | stoichiometry N [4] | critical concentration [5]
N[C@@H](Cc1ccccc1)C(=O)O [Phe, L-phenylalanine] | substantial delay in self-association | substantial delay in self-association | slight destabilization |  | 
T4, type IV collagen model peptide (POG)3QOGLOGLOG(POG)4 |  |  |  | 3 | 5.9 mg/mL

From publication PMC2784932 (Biochemistry, 2009)
